For data set [1] the following is noted: 298.2 K; 101.33 kPa; Liquid; Vibrating tube method.
A short description of data set [2]: refractive index (Na D-line) (dimensionless). Particulars: 298.2 K; 101.33 kPa; Liquid; Standard Abbe refractometry.

Structures are written as SMILES. ± gives the expanded uncertainty stated by the source.

Take `CCCCC(=O)OCC` [ethyl pentanoate]: the mass density in data set [1] stood at 872.36 ± 0.36 kg/m3. For the same molecule, the refractive index in data set [2] is 1.39841 ± 0.00042.

With `CC(C)CCO` [3-methylbutan-1-ol], in data set [1], the mass density came to 807.16 ± 0.35 kg/m3. The refractive index in data set [2] was 1.40528 ± 0.00042.

Consider `CCCCCCCC(=O)OCC` [ethyl octanoate], for which, in data set [1], the mass density is 862.23 ± 0.36 kg/m3. The refractive index in data set [2] worked out at 1.41572 ± 0.00042.

Regarding `O=CO` [formic acid], the mass density in data set [1] was 1214.1 ± 0.51 kg/m3. Further, the refractive index in data set [2] is on record as 1.36939 ± 0.00042.

Regarding `CCOC(=O)CCCCCCCCC(=O)OCC` [diethyl decanedioate], the mass density in data set [1] is 959.18 ± 0.37 kg/m3. Moreover, the refractive index in data set [2] is listed as 1.43485 ± 0.00042.

Consider `CCOC(=O)CCC(=O)OCC` [diethyl butanedioate], for which the mass density in data set [1] came to 1035.34 ± 0.4 kg/m3. The refractive index in data set [2] was 1.41967 ± 0.00042.

The record behind these values is the NIST ThermoML archive (doi:10.1016/j.fluid.2016.08.041).
